Common to all, as to assay type: cell-based
Experiment [1] has as its system Mycobacterium tuberculosis (Mtb-GFP; H37Rv pMSP12::GFP). In words: microbe, parasite or virus in culture. The following applies: 168 h, pH 6.8, read-out: Mtb Cho MITC95, cholesterol carbon source, pH 6.8, 7-day growth, GFP fluorescence, lowest concentration inhibiting 95% of growth.
The test system is the same in experiment [2]. In words: microbe, parasite or virus in culture. The following applies: 168 h, pH 6.8, read-out: Mtb Glu MITC95, glucose carbon source, pH 6.8, 7-day growth, GFP fluorescence, lowest concentration inhibiting 95% of growth.
Experiment [3] has as its system mitochondrial protein synthesis in HepG2 cells. In words: Mitochondrial protein synthesis assay (COX-I to SDH-A ratio, In Cell ELISA). The following applies: 4 days, ratio of COX-I to SDH-A levels, read-out: MPS IC50. The method, then:
Mitochondrial Protein Synthesis Assay
Inhibition of mitochondrial protein synthesis was assessed in HepG2 cells by comparing the levels of two subunits of oxidative phosphorylation enzyme complexes, subunit I of Complex IV (COX-I) and the 70 kDa subunit of Complex II (SDH-A). COX-I is mitochondrial DNA encoded and SDH-A is nuclear DNA encoded. HepG2 cells were seeded in 96-well collagen coated plates at 8,000 cells per well and exposed to 2-fold serial dilutions of compounds from 100 μM to 6.25 μM. Microtiter plates were incubated for approximately 5 replication cycles (4 days) prior to assessment of protein levels using a kit as described by the manufacturer (ab110217 MitoBiogenesis In Cell ELISA Kit, Abcam, Cambridge, MA). Inhibition of mitochondrial protein synthesis was expressed as a ratio of COX-1 to SDH-A levels.
(An ELISA detects its analyte on a solid surface through an enzyme-linked reagent.)

Results on 22 compounds are retold here after patent US20260035363A1, “COMPOUNDS AND METHODS OF USE THEREOF AS ANTIBACTERIAL AGENTS” (priority 2019, published 2026).

One may read the IC50 as the point on the concentration scale where inhibition reaches its midpoint.

Each structure is given as a SMILES string. Values after ≈ are worked out from the molar mass of the structure shown. Like-named read-outs stand apart in the source and are kept apart here.

In the case of `Cc1cn(C[C@H]2CC(c3cc(F)c(C4(F)CCS(=O)(=O)CC4)c(F)c3)=NO2)nn1` [Example 54, 4-(2,6-Difluoro-4-{(5R)-5-[(4-methyl-1H-1,2,3-triazol-1-yl)methyl]-4,5-dihydro-1,2-oxazol-3-yl}phenyl)-4-fluoro-1λ^6-thiane-1,1-dione], the MIC in experiment [1] was determined as 1.17 µM (≈ 0.501 µg/mL); in experiment [2], 0.78 µM (≈ 0.334 µg/mL). For the same compound, in experiment [3] (Homo sapiens, HepG2, 96 h), the IC50 was determined as 45 µM.

With `CN1CC(S(=O)(=O)c2ccc(-c3c(F)cc(C4=NO[C@@H](CNS(C)(=O)=O)C4)cc3F)cc2)C1` [Example 33, N-({(5R)-3-[2,6-Difluoro-4′-(1-methylazetidine-3-sulfonyl)[1,1′-biphenyl]-4-yl]-4,5-dihydro-1,2-oxazol-5-yl}methyl) methanesulfonamide], the MIC in experiment [1] was 1.66 µM (≈ 0.829 µg/mL); in experiment [2], 1.56 µM (≈ 0.779 µg/mL). Moreover, the IC50 in experiment [3] (Homo sapiens, HepG2, 96 h) was above 100 µM.

For `CN1CC(C)(C(F)(F)c2ccc(-c3ccc(C4=NO[C@@H](Cn5ccnn5)C4)cc3F)cc2)C1` [Example 10, 1-{[(5R)-3-{4′-[(1,3-Dimethylazetidin-3-yl)(difluoro)methyl]-2-fluoro[1,1′-biphenyl]-4-yl}-4,5-dihydro-1,2-oxazol-5-yl]methyl}-1H-1,2,3-triazole], the MIC in experiment [1] and in experiment [2] was 0.19 µM (≈ 0.0865 µg/mL) throughout. Besides, the IC50 in experiment [3] (Homo sapiens, HepG2, 96 h) is 22 µM.

`CN=S1(=O)CCC(F)(c2c(F)cc(C3=NO[C@@H](CNC(C)=O)C3)cc2F)CC1` (stereo partly drawn) [Example 29, N-{[(5R)-3-{3,5-Difluoro-4-[4-fluoro-1-(methylimino)-1-oxo-1λ^6-thian-4-yl]phenyl}-4,5-dihydro-1,2-oxazol-5-yl]methyl}acetamide]: the MIC in experiment [1] and in experiment [2] was 1.56 µM (≈ 0.651 µg/mL) throughout. In addition, the IC50 in experiment [3] (Homo sapiens, HepG2, 96 h) was above 100 µM.

Regarding `CC(=O)NC[C@H]1CN(c2ccc(N3CCOCC3)c(F)c2)C(=O)O1` [linezolid, reference compound], the MIC in experiment [1] worked out at 3.14 µM (≈ 1.06 µg/mL); in experiment [2] it was 4.58 µM (≈ 1.55 µg/mL). The IC50 in experiment [3] (Homo sapiens, HepG2, 96 h) was 8 µM.

As for `CN1CC(C)(S(=O)(=O)c2ccc(-c3ccc(C4=NO[C@@H](CNC(=O)C5CC5)C4)cc3F)cc2)C1` [Example 49, N-({(5R)-3-[4′-(1,3-Dimethylazetidine-3-sulfonyl)-2-fluoro[1,1′-biphenyl]-4-yl]-4,5-dihydro-1,2-oxazol-5-yl}methyl) cyclopropanecarboxamide], the MIC in experiment [1] came to 0.17 µM (≈ 0.0825 µg/mL); in experiment [2], 0.15 µM (≈ 0.0728 µg/mL). Further, the IC50 in experiment [3] (Homo sapiens, HepG2, 96 h) amounted to 51 µM.

With `CN1CC(C)(S(=O)(=O)c2ccc(-c3ccc(C4=NO[C@@H](CNC(=O)C56CC(C5)C6)C4)cc3F)cc2)C1` [Example 28, N-({(5R)-3-[4′-(1,3-Dimethylazetidine-3-sulfonyl)-2-fluoro[1,1′-biphenyl]-4-yl]-4,5-dihydro-1,2-oxazol-5-yl}methyl)bicyclo[1.1.1] pentane-1-carboxamide], the MIC worked out at 0.78 µM (≈ 0.399 µg/mL) in experiment [1] and 1.56 µM (≈ 0.798 µg/mL) in experiment [2]. The IC50 in experiment [3] (Homo sapiens, HepG2, 96 h) was determined as 62 µM.

In the case of `CS(=O)(=O)NC[C@H]1CC(c2cc(F)c(C3(F)CCS(=O)(=O)CC3)c(F)c2)=NO1` [Example 53, N-({(5R)-3-[3,5-Difluoro-4-(4-fluoro-1,1-dioxo-1λ^6-thian-4-yl)phenyl]-4,5-dihydro-1,2-oxazol-5-yl}methyl) methanesulfonamide], the MIC in experiment [1] and in experiment [2] was 6.25 µM (≈ 2.75 µg/mL) throughout. Further, in experiment [3] (Homo sapiens, HepG2, 96 h), the IC50 is above 100 µM.

Regarding `O=S1(=O)CCC(F)(c2ccc(C3=NO[C@@H](Cn4ccnn4)C3)cc2F)CC1` [Example 48, 4-Fluoro-4-(2-fluoro-4-{(5R)-5-[(1H-1,2,3-triazol-1-yl)methyl]-4,5-dihydro-1,2-oxazol-3-yl}phenyl)-1λ^6-thiane-1,1-dione], the MIC in experiment [1] and in experiment [2] was 6.25 µM (≈ 2.48 µg/mL) each time. The IC50 in experiment [3] (Homo sapiens, HepG2, 96 h) was above 100 µM.

In the case of `CN1CC(Oc2ccc(-c3ccc(C4=NO[C@@H](CO)C4)cc3F)cc2)C1` [Example 35, [(5R)-3-{2-Fluoro-4′-[(1-methylazetidin-3-yl)oxy][1,1′-biphenyl]-4-yl}-4,5-dihydro-1,2-oxazol-5-yl]methanol], the MIC in experiment [1] and in experiment [2] was 3.12 µM (≈ 1.11 µg/mL) each time. Moreover, in experiment [3] (Homo sapiens, HepG2, 96 h), the IC50 is above 50 µM.

In the case of `CN=S1(=O)CCN(c2c(F)cc(C3=NO[C@@H](Cn4ccnn4)C3)cc2F)CC1` [Example 31, 4-(2,6-Difluoro-4-{(5R)-5-[(1H-1,2,3-triazol-1-yl)methyl]-4,5-dihydro-l,2-oxazol-3-yl}phenyl)-1-(methylimino)-1λ^6-thiomorpholin-1-one], the MIC in experiment [1] stood at 5.47 µM (≈ 2.25 µg/mL); in experiment [2], 4.69 µM (≈ 1.93 µg/mL). Further, the IC50 in experiment [3] (Homo sapiens, HepG2, 96 h) is above 100 µM.

Take `N#Cc1ccc(-c2ccc(C3=NO[C@@H](COC(N)=O)C3)cc2F)cn1` [Example 20, {(5R)-3-[4-(6-Cyanopyridin-3-yl)-3-fluorophenyl]-4,5-dihydro-1,2-oxazol-5-yl}methyl carbamate]: the MIC in experiment [1] is 0.19 µM (≈ 0.0647 µg/mL); in experiment [2] it was 0.39 µM (≈ 0.133 µg/mL). Besides, the IC50 in experiment [3] (Homo sapiens, HepG2, 96 h) was 7.2 µM.

On to `CN1CC(C)(S(=O)(=O)c2ccc(-c3ccc(C4=NO[C@@H](CO)C4)cc3F)cc2)C1` [Example 21, {(5R)-3-[4′-(1,3-Dimethylazetidine-3-sulfonyl)-2-fluoro[1,1′-biphenyl]-4-yl]-4,5-dihydro-1,2-oxazol-5-yl}methanol], for which the MIC in experiment [1] and in experiment [2] was 1.56 µM (≈ 0.653 µg/mL) in each case. Further, the IC50 in experiment [3] (Homo sapiens, HepG2, 96 h) was above 100 µM.

For `CN1CC(C)(S(=O)(=O)c2ccc(-c3ccc(C4=NO[C@@H](CNC(=O)C5(C)CC5)C4)cc3F)cc2)C1` [Example 27, N-({(5R)-3-[4′-(1,3-Dimethylazetidine-3-sulfonyl)-2-fluoro[1,1′-biphenyl]-4-yl]-4,5-dihydro-1,2-oxazol-5-yl}methyl)-1-methylcyclopropane-1-carboxamide], the MIC in experiment [1] and in experiment [2] was 0.78 µM (≈ 0.39 µg/mL) in each case. Also, in experiment [3] (Homo sapiens, HepG2, 96 h), the IC50 was 37 µM.

For `CN1CC(F)(S(=O)(=O)c2ccc(-c3ccc(C4=NO[C@@H](Cn5ccnn5)C4)cc3F)cc2)C1` [Example 44, l-({(5R)-3-[2-Fluoro-4′-(3-fluoro-1-methylazetidine-3-sulfonyl)[1,1′-biphenyl]-4-yl]-4,5-dihydro-1,2-oxazol-5-yl}methyl)-1H-1,2,3-triazole], the MIC in experiment [1] was found to be 0.12 µM (≈ 0.0568 µg/mL); in experiment [2], 0.09 µM (≈ 0.0426 µg/mL). Besides, the IC50 in experiment [3] (Homo sapiens, HepG2, 96 h) stood at 1.4 µM.

As to `CN1CC(S(=O)(=O)c2ccc(-c3ccc(C4=NO[C@@H](CNS(C)(=O)=O)C4)cc3F)cc2)C1` [Example 11, N-({(5R)-3-[2-Fluoro-4′-(1-methylazetidine-3-sulfonyl)[1,1′-biphenyl]-4-yl]-4,5-dihydro-1,2-oxazol-5-yl}methyl)methanesulfonamide], the results for the MIC in experiment [1] and in experiment [2] were 1.17 µM (≈ 0.563 µg/mL) and 0.975 µM (≈ 0.47 µg/mL), respectively. The IC50 in experiment [3] (Homo sapiens, HepG2, 96 h) is above 100 µM.

Take `CN1CC(S(=O)(=O)c2ccc(-c3ccc(C4=NO[C@@H](CO)C4)cc3F)cc2)C1` [Example 13, [(5R)-3-[3-Fluoro-4-[4-(1-methylazetidin-3-yl)sulfonylphenyl]phenyl]-4,5-dihydroisoxazol-5-yl]methanol]: the MIC worked out at 1.2 µM (≈ 0.485 µg/mL) in experiment [1] and 1 µM (≈ 0.404 µg/mL) in experiment [2]. Besides, the IC50 in experiment [3] (Homo sapiens, HepG2, 96 h) worked out at 24 µM.

As for `N=S1(=O)CCC(F)(c2c(F)cc(C3=NO[C@@H](Cn4ccnn4)C3)cc2F)CC1` (stereo partly drawn) [Example 38, 4-(2,6-Difluoro-4-{(5R)-5-[(1H-1,2,3-triazol-1-yl)methyl]-4,5-dihydro-1,2-oxazol-3-yl}phenyl)-4-fluoro-1-imino-1λ^6-thian-1-one], the MIC in experiment [1] was determined as 1.56 µM (≈ 0.645 µg/mL); in experiment [2] it was 0.78 µM (≈ 0.322 µg/mL). Besides, the IC50 in experiment [3] is 44 µM.

As to `CN1CC(C)(S(=O)(=O)c2ccc(-c3c(F)cc(C4=NO[C@@H](Cn5ccnn5)C4)cc3F)cn2)C1` [Example 24, 5-(2,6-Difluoro-4-{(5R)-5-[(1H-1,2,3-triazol-1-yl)methyl]-4,5-dihydro-1,2-oxazol-3-yl}phenyl)-2-(1,3-dimethylazetidine-3-sulfonyl)pyridine], the MIC in experiment [1] and in experiment [2] was 3.12 µM (≈ 1.52 µg/mL) throughout. Also, the IC50 in experiment [3] (Homo sapiens, HepG2, 96 h) was 76 µM.

For `CN1CC(F)(C(F)(F)c2ccc(-c3ccc(C4=NO[C@@H](Cn5ccnn5)C4)cc3F)cc2)C1` [Example 15, (5R)-3-[4-[4-[Difluoro-(3-fluoro-1-methyl-azetidin-3-yl)methyl]phenyl]-3-fluoro-phenyl]-5-(triazol-1-ylmethyl)-4,5-dihydroisoxazole], the MIC in experiment [1] was 0.055 µM (≈ 0.0253 µg/mL); in experiment [2], 0.035 µM (≈ 0.0161 µg/mL). In experiment [3] (Homo sapiens, HepG2, 96 h), the IC50 amounted to 4.3 µM.

Take `CN1CC(C)(S(=O)(=O)c2ccc(-c3ccc(C4=NO[C@@H](C(N)=O)C4)cc3F)cc2)C1` [Example 56, (5R)-3-[4′-(1,3-Dimethylazetidine-3-sulfonyl)-2-fluoro[1,1′-biphenyl]-4-yl]-4,5-dihydro-1,2-oxazole-5-carboxamide]: the MIC in experiment [1] came to 6.25 µM (≈ 2.7 µg/mL); in experiment [2] it was 13 µM (≈ 5.61 µg/mL). The IC50 in experiment [3] (Homo sapiens, HepG2, 96 h) is above 100 µM.

Consider `CN=S1(=O)CCC(F)(c2c(F)cc(C3=NO[C@@H](CNC(=O)OC)C3)cc2F)CC1` (single isomer, unassigned) [Example 8], for which the MIC in experiment [1] and in experiment [2] was 3.12 µM (≈ 1.35 µg/mL) throughout. Moreover, the IC50 in experiment [3] (Homo sapiens, HepG2, 96 h) was above 100 µM.
